The text below walks through data of patent US10561608B2, “Dry powder Vancomycin compositions and associated methods” (SAVARA INC., priority 2011, dated 2020).

SMILES strings stand for the structures. Structures can show the parent of a compound that is named as a salt.

Data set [1] can be described thus: Reconstituted pH of powder. In kind it is physicochemical. The following applies: effect of leucine concentration. From the text:
In certain embodiments, the dry powder composition may be reconstituted and the resulting reconstituted powder may have a pH greater than 3.0, preferably greater than 3.5 and most preferably greater than 4.0.
In some embodiments, the delivery efficiency of dry powder vancomycin compositions may be improved through the addition of small amounts of leucine (FIG. 2). […] In addition, the addition of leucine results in powders with more physiologically acceptable pH values. See Table 1 below for the effect of leucine concentration on powder water content, particle size and reconstituted pH.

The nature of data set [2]: Single dose plasma pharmacokinetics in healthy volunteers. The following applies: human, in vivo, intravenous infusion 250 mg over 60 min, mean. Here is the method: FIG. 11 is a graph depicting plasma concentrations as a function of time (semi-log) after a single dose administration of a vancomycin dry powder composition (Lot G-11-026-1) or intravenous administration of vancomycin (inhaled vancomycin dose 16 mg, circle; inhaled vancomycin dose 32 mg, triangle; inhaled vancomycin dose 80 mg, square; Intravenous infusion 250 mg over 60 min, circle with line).
In some embodiments, the dry powder vancomycin compositions of the present disclosure may provide an absolute bioavailability of 40% or more. Absolute bioavailability is calculated as AUC0-inf of vancomycin after the vancomycin composition administration divided by AUC0-inf of vancomycin after intravenous administration and adjusted for dose.
Following a single administration of a dry powder vancomycin composition (Lot […]) in eighteen healthy volunteers, a slow absorption phase followed by an elimination phase were observed. The main pharmacokinetic parameters after single dose administration of the inhaled vancomycin composition and intravenous vancomycin are shown in Table 7. AUC0-t refers to the area under the plasma concentration-time curve to the last measurable time point (24 h) calculated by the linear trapezoidal rule. AUC0-inf refers to the area under the concentration-time curve to infinity. Cmax refers to the maximum blood plasma concentration of vancomycin, and Tmax refers to the amount of time necessary to reach maximum blood plasma levels of vancomycin, and fin, refers to the elimination half-life associated with the terminal slope (Kel) of the semilogarithmic drug concentration-time curve, calculated as 0.693/Kel.

Broadly, the AUC(0-inf) is total exposure, with the tail of the curve extrapolated. A high value points to more exposure. One may read the Cmax as the highest concentration seen after dosing. A word on the Tmax: it is the time from dosing to the highest level. As usually defined, the half-life is the time in which the quantity being followed falls by half. A high value points to slow decline. The term AUC(0-t) denotes the area under the concentration-time curve up to a stated or last time point. The low end stands for low exposure, the high end for high exposure.

For `CN[C@H](CC(C)C)C(=O)N[C@H]1C(=O)N[C@@H](CC(N)=O)C(=O)N[C@H]2C(=O)N[C@H]3C(=O)N[C@H](C(=O)N[C@H](C(=O)O)c4cc(O)cc(O)c4-c4cc3ccc4O)[C@H](O)c3ccc(c(Cl)c3)Oc3cc2cc(c3OC2O[C@H](CO)[C@@H](O)[C@H](O)[C@H]2O[C@H]2C[C@](C)(N)[C@H](O)[C@H](C)O2)Oc2ccc(cc2Cl)[C@H]1O` (stereo partly drawn) [API, Vancomycin hydrochloride], in data set [1], the “Reconstituted pH” value turned out to be 3.0.
Take `CN[C@H](CC(C)C)C(=O)N[C@H]1C(=O)N[C@@H](CC(N)=O)C(=O)N[C@H]2C(=O)N[C@H]3C(=O)N[C@H](C(=O)N[C@H](C(=O)O)c4cc(O)cc(O)c4-c4cc3ccc4O)[C@H](O)c3ccc(c(Cl)c3)Oc3cc2cc(c3OC2O[C@H](CO)[C@@H](O)[C@H](O)[C@H]2O[C@H]2C[C@](C)(N)[C@H](O)[C@H](C)O2)Oc2ccc(cc2Cl)[C@H]1O` (stereo partly drawn) [IV vancomycin, Vancomycin]: in data set [2], the AUC(0-inf) amounted to 44400 ng·h/mL, the peak level (Cmax) was 10000 ng/mL, the Tmax is 0.92 h and the half-life is 7.23 h. In data set [2] (t = 24 h), this compound gave an AUC(0-t) of 41000 ng·h/mL.
